Consider 23 compounds from US20130344026A1, “Dimeric Smac Mimetics” (priority 2009, published 2013).

A word on the IC50: it is the concentration at which inhibition is half-maximal.

One test relates to HCC461. The test can be described thus: cell viability assay in HCC461, compound alone. It counts as cell-based. The following applies: HCC461, HCC461; Tables 6-9; read-out: IC50 (μM) in cell viability assay in HCC461.
As to `CN[C@@H](C)C(=O)N[C@H](C(=O)N1C[C@@H](NC(=O)c2cccc(C(=O)N[C@H]3C[C@@H](C(=O)N[C@@H]4CCCc5ccccc54)N(C(=O)[C@@H](NC(=O)[C@H](C)NC)C(C)(C)C)C3)c2)C[C@H]1C(=O)N[C@H](C)C(C)C)C(C)C` [Compound 133], the IC50 is 0.016 µM. Regarding `CN[C@@H](C)C(=O)N[C@H](C(=O)N1C[C@@H](NC(=O)c2cccc(C(=O)NCC[C@@H](NC(=O)[C@H](NC(=O)[C@@H](C)NC)C(C)C)C(=O)N[C@@H](C)C(C)C)c2)C[C@H]1C(=O)N[C@@H]1CCCc2ccccc21)C(C)(C)C` [Compound 138], the concentration for half-maximal inhibition (IC50) is more than 30 µM. Turning to `CN[C@@H](C)C(=O)NC(C(=O)N1C[C@@H](NC(=O)c2cccc(C(=O)NCCCC[C@H](NC(=O)C(NC(C)[C@H](C)NC)C(C)(C)C)C(=O)N3CCCCC3)c2)C[C@H]1C(=O)N[C@@H]1CCCc2ccccc21)C(C)(C)C` (some centres unmarked) [Compound 152], the 50% inhibitory concentration (IC50) was 0.447 µM.

The same test, now with this note: HCC461, HCC461; Tables 15-18; read-out: IC50 (uM) in cell viability assay in HCC461.
On to `CN[C@@H](C)C(=O)N[C@H](C(=O)N1CCC[C@H]1C(=O)N[C@H](CNC(=O)c1ccc(C(=O)NC[C@@H](NC(=O)[C@@H]2CCCN2C(=O)[C@@H](NC(=O)[C@H](C)NC)C(C)(C)C)C2CCCCC2)cc1)C1CCCCC1)C(C)(C)C` [Compound P4-8], for which the IC50 stood at 0.2 µM. Same read-out and setting: as for `CN[C@@H](C)C(=O)N[C@@H](CCCCNC(=O)c1cccc(C(=O)NCCCC[C@H](NC(=O)[C@H](C)NC)C(=O)N2CCC[C@H]2C(=O)NC(c2ccccc2)c2ccccc2)c1)C(=O)N1CCC[C@H]1C(=O)NC(c1ccccc1)c1ccccc1` [Compound P2-29], the figure is 0.324 µM; as for `CN[C@@H](C)C(=O)N[C@H](C(=O)N1CCC[C@H]1Cn1nnnc1SC(C)(C)C)[C@@H](C)OCC#CC#CCO[C@H](C)[C@H](NC(=O)[C@H](C)NC)C(=O)N1CCC[C@H]1Cn1nnnc1SC(C)(C)C` [Compound P2-21], 0.24 µM; as for `CN[C@@H](C)C(=O)N[C@H](C(=O)N1CCC[C@H]1C(=O)N[C@H](CNC(=O)CCCC(=O)NC[C@@H](NC(=O)[C@@H]1CCCN1C(=O)[C@@H](NC(=O)[C@H](C)NC)C(C)(C)C)c1ccccc1)c1ccccc1)C(C)(C)C` [Compound P4-14], 0.093 µM.

As to `CN[C@@H](C)C(=O)N[C@H](C(=O)N1CCC[C@H]1C(=O)N[C@H](CNC(=O)c1ccc(C(=O)NC[C@@H](NC(=O)[C@@H]2CCCN2C(=O)[C@@H](NC(=O)[C@H](C)NC)C(C)(C)C)c2ccccc2)cc1)c1ccccc1)C(C)(C)C` [Compound P4-12], the IC50 was 0.038 µM. As to `CCN[C@@H](C)C(=O)C[C@H](C(=O)N1CCC[C@H]1C(=O)N[C@@H]1CCCc2ccccc21)c1ccc(C#CCO[C@H](C)[C@H](NC(=O)[C@H](C)NC)C(=O)N2CCC[C@H]2C(=O)N[C@@H]2CCCc3ccccc32)cc1` [Compound H-1], the IC50 amounted to 0.0171 µM. In the case of `CC[C@H](NC)C(=O)N[C@@H](CCCCCC[C@H](NC(=O)[C@H](CC)NC)C(=O)N1CCC[C@H]1C(=O)N[C@@H]1CCCc2ccccc21)C(=O)N1CCC[C@H]1C(=O)N[C@@H]1CCCc2ccccc21` [Compound P2-12], the IC50 stood at 0.021 µM.

The test is the same for the next values; noted with them: HCC461, HCC461 cells, compound alone; read-out: IC50 (uM) in cell viability assay in HCC461.
With `CN[C@@H](C)C(=O)N[C@H](C(=O)N1C[C@@H](NC(=O)c2cc(C(=O)N[C@H]3C[C@@H](C(=O)NC4CCCc5ccccc54)N(C(=O)[C@@H](NC(=O)[C@H](C)NC)C(C)(C)C)C3)cc([N+](=O)[O-])c2)CC1C(=O)N[C@@H]1CCCc2ccccc21)C(C)(C)C` (some centres unmarked) [Compound P3-16], the 50% inhibitory concentration (IC50) amounted to 0.007 µM. Same read-out and setting: the result for `CN[C@@H](C)C(=O)N[C@H](C(=O)N1C[C@@H](NC(=O)c2cc(Br)cc(C(=O)N[C@H]3C[C@@H](C(=O)NC4CCCc5ccccc54)N(C(=O)[C@@H](NC(=O)[C@H](C)NC)C(C)(C)C)C3)c2)CC1C(=O)N[C@@H]1CCCc2ccccc21)C(C)(C)C` (some centres unmarked) [Compound P3-29] reads 0.016 µM; that for `CN[C@@H](C)C(=O)N[C@H](C(=O)N1C[C@@H](n2cc(CCCc3cn([C@H]4C[C@@H](C(=O)N[C@H](C)c5ccccc5)N(C(=O)[C@@H](NC(=O)[C@H](C)NC)C(C)(C)C)C4)nn3)nn2)C[C@H]1C(=O)N[C@H](C)c1ccccc1)C(C)(C)C` [Compound P3-87], 0.028 µM. As to `CN[C@@H](C)C(=O)N[C@H](C(=O)N1C[C@@H](n2cc(CNC(=O)NCc3cn([C@H]4C[C@@H](C(=O)N[C@@H]5CCCc6ccccc65)N(C(=O)[C@@H](NC(=O)[C@H](C)NC)C(C)(C)C)C4)nn3)nn2)C[C@H]1C(=O)N[C@@H]1CCCc2ccccc21)C(C)(C)C` [Compound P3-5], the IC50 worked out at 0.061 µM. On the same count and under the same terms, as for `CC[C@H](C)C(NC(=O)[C@H](C)NC)C(=O)N1C[C@@H](NC(=O)c2cccc(C(=O)N[C@H]3C[C@@H](C(=O)N(C)[C@H](C)c4ccccc4)N(C(=O)C(NC(=O)[C@H](C)NC)[C@@H](C)CC)C3)c2)C[C@H]1C(=O)N(C)C(C)c1ccccc1` (some centres unmarked) [Compound P3-68], the figure is 0.025 µM; as for `C#CC[C@H](NC(=O)[C@H](C)NC)C(=O)N1C[C@@H](NC(=O)c2cc(N)cc(C(=O)N[C@H]3C[C@@H](C(=O)N[C@@H]4CCCc5ccccc54)N(C(=O)[C@H](CC#C)NC(=O)[C@H](C)NC)C3)c2)C[C@H]1C(=O)N[C@@H]1CCCc2ccccc21` [Compound P3-62], 0.198 µM; as for `CN[C@@H](C)C(=O)N[C@H](C(=O)N1C[C@@H](NC(=O)c2cc(OC)cc(C(=O)N[C@H]3C[C@@H](C(=O)N[C@H](C)c4ccccc4)N(C(=O)[C@@H](NC(=O)[C@H](C)NC)C(C)(C)C)C3)c2)C[C@H]1C(=O)N[C@H](C)c1ccccc1)C(C)(C)C` [Compound P3-73], 0.075 µM. Turning to `CC[C@@H](C)C(=O)N[C@H](C(=O)N1C[C@@H](NC(=O)c2cccc(C(=O)N[C@H]3C[C@@H](C(=O)NC(c4ccccc4)c4ccccc4)N(C(=O)[C@@H](NC(=O)[C@H](C)NC)C(C)(C)C)C3)c2)C[C@H]1C(=O)NC(c1ccccc1)c1ccccc1)C(C)(C)C` [Compound P3-51], the IC50 stood at 0.026 µM.

Take `CN[C@@H](C)C(=O)N[C@H](C(=O)N1C[C@@H](NC(=O)c2cccc(C(=O)N[C@H]3C[C@@H](C(=O)Nc4cccc5c4CCCC5)N(C(=O)[C@@H](NC(=O)[C@H](C)NC)C(C)(C)C)C3)c2)C[C@H]1C(=O)Nc1cccc2c1CCCC2)C(C)(C)C` [Compound P3-45]: the IC50 was 0.181 µM. Regarding `CN[C@@H](C)C(=O)N[C@H](C(=O)N1C[C@@H](NC(=O)c2cccc(C(=O)N[C@H]3C[C@@H](C(=O)N[C@@H]4CCCc5ccccc54)N(C(=O)[C@@H](NC(=O)[C@H](C)NC)C(C)(C)C)C3)n2)C[C@H]1C(=O)N[C@@H]1CCCc2ccccc21)C(C)(C)C` [Compound P3-10], the half-maximal inhibitory concentration (IC50) is 0.046 µM.

The same test, now with this note: HCC461; Tables 6-9; read-out: IC50 (μM) in cell viability assay in HCC461.
`CN[C@@H](C)C(=O)N[C@H](C(=O)N1C[C@@H](NC(=O)c2cccc(C(=O)NCCCC[C@H](NC(=O)[C@@H](NC(=O)[C@H](CO)NC)C(C)(C)C)C(=O)N[C@@H](C)C(C)C)c2)CC1C(=O)N[C@@H]1CCc2ccccc2C1)C(C)(C)C` (some centres unmarked) [Compound 165]: the concentration for half-maximal inhibition (IC50) was more than 30 µM.

The same test, now with this note: HCC461; Tables 15-18; read-out: IC50 (uM) in cell viability assay in HCC461.
As to `CN[C@@H](C)C(=O)N[C@H](C(=O)N1CCC[C@H]1C(=O)N[C@H](CNC(=O)C1CCCC(C(=O)NC[C@@H](NC(=O)[C@@H]2CCCN2C(=O)[C@@H](NC(=O)[C@H](C)NC)C(C)(C)C)C2CCCCC2)C1)C1CCCCC1)C(C)(C)C` (single isomer, unassigned) [Compound P4-5], the IC50 stood at 0.011 µM. `CN[C@@H](C)C(=O)N[C@H](C(=O)N1CCC[C@H]1C(=O)N[C@H](CNC(=O)C1CCCCC1C(=O)NC[C@@H](NC(=O)[C@@H]1CCCN1C(=O)[C@@H](NC(=O)[C@H](C)NC)C(C)(C)C)C1CCCCC1)C1CCCCC1)C(C)(C)C` (single isomer, unassigned) [Compound P4-3]: the half-maximal inhibitory concentration (IC50) was determined as 0.03 µM.
